The source of these data is patent US20260112450A1, “METHODS FOR SELECTION OF CANCER PATIENTS FOR ANTI-ANGIOGENIC AND IMMUNE CHECKPOINT BLOCKAGE THERAPIES AND COMBINATIONS THEREOF” (Washington University, priority 2022, published 2026).

One test has as its system metastatic renal cancer. Nature of the test: Javelin Renal 101 clinical trial: progression free survival, re-evaluated by angio-immune subtype. It counts as in vivo, human. The source says: (§1) Immunotherapy datasets: Pre-treatment TPM normalized RNA sequencing data from anti-PD1/L1 and anti-CTLA4 treated cohorts were downloaded for the studies as described in Table 1. Studies were selected based on the following criteria: >20 samples for enrichment calculation, RNA sequencing of pre-treatment biopsies, and only anti-PD1/PDL1 treated patients. Gene signature enrichment and molecular subtypes were derived as described elsewhere in the manuscript. Survival and response rates to treatment when available were compared among angio-immune clusters.
(§2) Quantification and Statistical Analysis: Unless indicated elsewhere, all visualizations were completed in GraphPad Prism 9. GraphPad Prism 9 was used for all statistical analysis. Data is presented as mean±standard error of mean. One way ANOVA was used for comparison across more than two groups. Non-parametric tests were used when data was not normally distributed. Log rank tests were used for all survival analysis. Alpha value of 0.05 was used throughout the study.
(§3) The approval of the combination of avelumab, an anti-PDL1, and axitinib, a small molecule tyrosine kinase inhibitor, for the first-line treatment of metastatic renal cancer was provided in 2020. […] Next, it was sought to ascertain if stratification by angio-immune subtypes can confer more significant differences in responses and survival.
(§4) The enrichment of the 91 angio-immune signatures was scored using RNA sequencing data from pre-treatment biopsies.
Survival was tracked across clusters to identify if angio-immune molecular subtypes can inform treatment choice in this setting.

In test [1] the test system is clear cell renal carcinoma. Nature of the test: Braun dataset (Checkmate 025 and Checkmate 010): overall survival, re-evaluated by angio-immune subtype. It counts as in vivo, human. To be noted: for differences in median OS between angio-immune molecular subtypes: comparison of C1, C2 and C3 within one treatment arm.
Text: as §1, §2, §3, §4
Survival was tracked across clusters to identify if angio-immune molecular subtypes can inform treatment choice in this setting. […] To determine if patients belonging to C1, C2, and C3 derive clinical benefit from Nivolumab over everolimus, OS was tracked among angio-immune molecular subtypes across treatment arms.

The mark [2] stands for this setting: all patients with pre-treatment RNA sequencing data, Braun dataset.
[3] abbreviates: patients in angio-immune subtype C1, Braun dataset.
[4] abbreviates: patients in angio-immune subtype C2, Braun dataset.
The mark [5] stands for this setting: patients in angio-immune subtype C3, Braun dataset.

Values joined by “and” are separate entries in the source; they are usually repeats but may differ in a detail not shown here. Equal entries are not always repeated.

In the case of `CCN(CC)CCNC(=O)c1c(C)[nH]c(/C=C2\C(=O)Nc3ccc(F)cc32)c1C` [sunitinib], the “median PFS” value came out at 8.4 months in the test with metastatic renal cancer (all patients with pre-treatment RNA sequencing data, Javelin Renal 101 dataset); 9.7 months with metastatic renal cancer (patients in angio-immune subtype C1, Javelin Renal 101 dataset); 8.3 months in the test with metastatic renal cancer (patients in angio-immune subtype C2, Javelin Renal 101 dataset); 8.2 months with metastatic renal cancer (patients in angio-immune subtype C3, Javelin Renal 101 dataset).
Take Nivolumab: an anti-PD1 therapy: the “median OS” value is 25.9877 months in test [1] (setting [2]); 16.9528 months in test [1] (setting [3]); 36.961 months and 36.96 months in test [1] (setting [4]); 29.8645 months and 29.86 months in test [1] (setting [5]). Further, in test [1], the “differences in median OS between angio-immune molecular subtypes” value is listed as “significant improvement in median OS”. For the same molecule, the “clinical benefit (OS) compared to everolimus” value was “no clinical benefit” in test [1] (patients in C1, p=0.6347) and “no statistically significant clinical benefit” in test [1] (patients in C2, p=0.0581). Also, the “median OS compared to the everolimus arm” value in test [1] (patients in C3, p<0.0043) is reported as “significantly improved”.
As for `CO[C@H]1C[C@@H]2CC[C@@H](C)[C@@](O)(O2)C(=O)C(=O)N2CCCC[C@H]2C(=O)O[C@H]([C@H](C)C[C@@H]2CC[C@@H](OCCO)[C@H](OC)C2)CC(=O)[C@H](C)/C=C(\C)[C@@H](O)[C@@H](OC)C(=O)[C@H](C)C[C@H](C)/C=C/C=C/C=C/1C` [everolimus], the “median OS” value in test [1] (setting [2]) was found to be 19.7454 months; in test [1] (setting [3]), 24.6735 months; in test [1] (setting [4]), 21.13 months; in test [1] (setting [5]) it was 13.27 months. Also, the “differences in median OS between angio-immune molecular subtypes” value in test [1] was “no significant differences”.
